{"source": "patent US6943194B1", "about": "“Synthesis of phenstatin and prodrugs thereof” (Arizona Board of Regents, acting for and on behalf of …, priority 1998, dated 2005)", "data": [{"tested_on": "not given", "assay": "not given", "details": "not given", "units": {"melting point": "°C"}, "values": [{"smiles": "COc1cc(C(=O)c2cc(Cl)cc(Cl)c2)cc(OC)c1OC", "note": "[Compound 4e, 3,5-dichloro-3′,4′,5′-trimethoxybenzophenone]", "melting point": "131 to 132"}, {"smiles": "COc1cc(C(=O)c2cc(F)cc(F)c2)cc(OC)c1OC", "note": "[Compound 4f, 3,5-difluoro-3′,4′,5′-trimethoxybenzophenone]", "melting point": "121 to 123"}, {"smiles": "COc1cc(OC)cc(C(=O)c2cc(OC)c(OC)c(OC)c2)c1", "note": "[Compound 4d, 3,3′,4,5,5′-pentamethoxybenzophenone]", "melting point": "121 to 122"}, {"smiles": "COc1cc(C(=O)c2cc(C)cc(C)c2)cc(OC)c1OC", "note": "[Compound 4b, 3,4,5-trimethoxy-3′,5′-dimethylbenzophenone]", "melting point": "104 to 105"}]}, {"tested_on": "NCI 60 Cell-Line Human Tumor Screen", "assay": "NCI 60 cell-line human tumor screen", "format": "cell-based", "details": "Homo sapiens, read-out: Mean Panel GI50 (±S.D)", "excerpt": "(§1) Compounds 3b, 3d, 1d, and 4a-f were comparatively evaluated in the NCI 60 cell-line human tumor screen (Boyd, Status of the NCI preclinical antitumor drug discovery screen. Implications for selection of new agents for clinical trial, CANCER: Principles and Practices of Oncology Updates, DeVita, et al. (Eds.), Lippincott: Philadelphia, 1989; Vol. 10, No. 3, pp. 1-12; Boyd, The Future of New Drug Development. Section I. Introduction to Cancer Therapy, Current Therapy in Oncology, Niederhuber, (Ed.), B. C. Decker, Inc.: Philadelphia, 1993; pp. 11-22; Boyd, et al., Data display and analysis strategies from NCI disease-oriented in vitro antitumor drug screen. In Cytotoxic Anticancer Drugs: Models and Concepts for Drug Discovery and Development, Valeriote, et al. (Eds.), Kluwer Academic Publishers: Amsterdam, 1992; pp. 11-34; Stinson, et al., Morphological and Immunocytochemical Characteristics of Human Tumor Cell Lines for Use in a Disease-Oriented Anticancer Drug Screen, Anticancer Res. 1992, 12,-1035-1054; Boyd, et al., Some Practical Considerations and Applications of the NCI in vitro Drug Discovery Screen, Drug Dev. Res. 1995, 34, 91-109).", "units": {"GI50": "µM"}, "values": [{"smiles": "COc1cc(C(=O)c2cc(F)cc(F)c2)cc(OC)c1OC", "note": "[Compound 4f, 3,5-difluoro-3′,4′,5′-trimethoxybenzophenone]", "GI50": 4.94}, {"smiles": "COc1cc(OC)cc(C(=O)c2cc(OC)c(OC)c(OC)c2)c1", "note": "[Compound 4d, 3,3′,4,5,5′-pentamethoxybenzophenone]", "GI50": 0.543}]}, {"tested_on": "NCI 60 Cell-Line Human Tumor Screen", "assay": "NCI 60 cell-line human tumor screen", "format": "cell-based", "details": "Homo sapiens; mean over NCI 60 cell-line panel, tested in triplicate; read-out: Mean Panel GI50 (±S.D)", "excerpt": "as §1", "units": {"GI50": "µM"}, "values": [{"smiles": "COc1cc(C(=O)c2cc(Cl)cc(Cl)c2)cc(OC)c1OC", "note": "[Compound 4e, 3,5-dichloro-3′,4′,5′-trimethoxybenzophenone]", "GI50": 5.12}, {"smiles": "COc1cc(C(=O)c2cc(C)cc(C)c2)cc(OC)c1OC", "note": "[Compound 4b, 3,4,5-trimethoxy-3′,5′-dimethylbenzophenone]", "GI50": 3.48}]}, {"tested_on": "tubulin", "assay": "Inhibition of [3H]colchicine binding to tubulin", "parameters": "species or system bovine", "details": "1.0 μM tubulin, 5.0 μM [3H]colchicine, 5.0 μM inhibitor, 10 min at 37° C.", "procedure": "Reaction mixtures contained 0.1 mg/mL (1.0 μM) tubulin, 5.0 μM [3H]colchicine, and 5.0 μM inhibitor and were incubated for 10 min at 37° C.", "units": {"Inhibition of colchicine binding % inhibition": "%"}, "values": [{"smiles": "COc1cc(C(=O)c2cc(F)cc(F)c2)cc(OC)c1OC", "note": "[Compound 4f, 3,5-difluoro-3′,4′,5′-trimethoxybenzophenone]", "Inhibition of colchicine binding % inhibition": 0}, {"smiles": "COc1cc(OC)cc(C(=O)c2cc(OC)c(OC)c(OC)c2)c1", "note": "[Compound 4d, 3,3′,4,5,5′-pentamethoxybenzophenone]", "Inhibition of colchicine binding % inhibition": 58}, {"smiles": "COc1cc(C(=O)c2cc(C)cc(C)c2)cc(OC)c1OC", "note": "[Compound 4b, 3,4,5-trimethoxy-3′,5′-dimethylbenzophenone]", "Inhibition of colchicine binding % inhibition": 7}]}, {"tested_on": "bovine brain tubulin", "assay": "Inhibition of tubulin polymerization", "format": "biochemical", "details": "10 μM tubulin, extent of assembly after 20 min at 30° C.; read-out: Inhibition of tubulin polymerization IC50, μM ± SD", "procedure": "(§2) Electrophoretically homogeneous bovine brain tubulin was purified from bovine brain as described previously (Hamel, et al., Separation of active tubulin and microtubule-associated proteins by ultracentrifugation and isolation of a component causing the formation of microtubule bundles, Biochemistry 1984, 23, 4173-4184). Reaction mixtures (0.24 mL during preincubation, 0.25 mL during incubation, with all concentrations referring to the final volume) contained 0.8 M monosodium glutamate (taken from 2.0 M stock solution adjusted to pH 6.6 with Hcl), 1.0 mg/mL (10 μM) tubulin, 4% (v/v) dimethyl sulfoxide, and varying concentrations of drug. Samples were incubated for 15 min at 30° C. and chilled on ice. GTP, required for polymerization, was added in 10 μL to a final concentration of 0.4 mM. Samples were transferred to cuvettes held at 0° C. by electronic temperature controllers in GILFORD model 250 recording spectrophotometers. Baselines were established, and the reaction was initiated by a jump (approximately 1 min) to 30° C. Extent of assembly after 20 min was the parameter used to determine IC50 values. […] In most experiments, four spectrophotometers were used, with two control reaction mixtures.", "units": {"IC50": "µM"}, "values": [{"smiles": "COc1cc(C(=O)c2cc(F)cc(F)c2)cc(OC)c1OC", "note": "[Compound 4f, 3,5-difluoro-3′,4′,5′-trimethoxybenzophenone]", "IC50": "39 ± 7"}, {"smiles": "COc1cc(OC)cc(C(=O)c2cc(OC)c(OC)c(OC)c2)c1", "note": "[Compound 4d, 3,3′,4,5,5′-pentamethoxybenzophenone]", "IC50": "3.6 ± 0.8"}, {"smiles": "COc1cc(C(=O)c2cc(C)cc(C)c2)cc(OC)c1OC", "note": "[Compound 4b, 3,4,5-trimethoxy-3′,5′-dimethylbenzophenone]", "IC50": "11 ± 2"}]}, {"tested_on": "bovine brain tubulin", "assay": "Inhibition of tubulin polymerization", "format": "biochemical", "details": "purified tubulin", "procedure": "as §2", "values": [{"smiles": "COc1cc(C(=O)c2cc(Cl)cc(Cl)c2)cc(OC)c1OC", "note": "[Compound 4e, 3,5-dichloro-3′,4′,5′-trimethoxybenzophenone]", "activity against tubulin / in inhibiting assembly (in words)": "almost inert"}, {"smiles": "COc1cc(C(=O)c2cc(F)cc(F)c2)cc(OC)c1OC", "note": "[Compound 4f, 3,5-difluoro-3′,4′,5′-trimethoxybenzophenone]", "activity against tubulin / in inhibiting assembly (in words)": "almost inert"}]}, {"tested_on": "bovine brain tubulin", "assay": "Inhibition of tubulin polymerization", "format": "biochemical", "details": "relative to 4d", "procedure": "as §2", "units": {"further fold drop in activity against tubulin": "fold"}, "values": [{"smiles": "COc1cc(C(=O)c2cc(C)cc(C)c2)cc(OC)c1OC", "note": "[Compound 4b, 3,4,5-trimethoxy-3′,5′-dimethylbenzophenone]", "further fold drop in activity against tubulin": 3}]}, {"tested_on": "bovine brain tubulin", "assay": "Inhibition of tubulin polymerization", "format": "biochemical", "details": "relative to phenstatin 3b", "procedure": "as §2", "values": [{"smiles": "COc1cc(OC)cc(C(=O)c2cc(OC)c(OC)c(OC)c2)c1", "note": "[Compound 4d, 3,3′,4,5,5′-pentamethoxybenzophenone]", "fold less potent than phenstatin in inhibiting tubulin polymerization": "3-4 fold"}]}]}
